Laboratory results as given in US9139502B2, “Use of an urushiol compound in preparation of pharmaceutical compositions for inhibiting Smad3 phosphorylation” (Southern Hospital, Southern Medical University, priority 2013, dated 2015).

Columns and labels:
p38 = assay: Western blot of TGF-β1-induced p38 phosphorylation in vitro; format: cell-based, rat; settings: NRK52E and NRK49F cells, GQ-5 2.5 nM pre-treated 1 h, TGF-β1 10 ng/ml 1 h
Experimental: (§1) NRK52E and NRK49F cells were cultured in DMEM-Ham's medium (Gibco, Life Techologies, NY, USA) supplemented with 10% fetal bovine serum (Gibco, Life Techologies, NY, USA). The cells reached at approximately 50% confluence were used for in vitro experiments. Cells were serum-starved for 12 h, and randomized into 4 groups: (1) Controls; (2) GQ-5 only; (3) TGF-β1 only; (4) TGF-β1+GQ-5
(§2) (2) GQ-5 only: pre-treated with GQ-5 (2.5 μM) for 1 h, followed with DMEM for 1 h
(§3) (3) TGF-β1 only: pre-treated with DMSO (0.1%) for 1 h, followed with TGF-β1 (10 ng/ml) for 1 h
(§4) (4) TGF-β1+GQ-5: pre-treated with GQ-5 (2.5 nM) for 1 h, followed with TGF-β1 (10 ng/ml) for 1 h
(§5) GQ-5 was dissolved in DMSO. Cells were treated as described. cell lysates were immunoblotted with antibodies against Smad4, Smad7, phospho-p38, p38, phospho-PI3K, PI3K, phosphor-ERK, and ERK.

Smad4 = assay: Western blot of Smad4 expression in vitro; format: cell-based, rat; settings: NRK52E and NRK49F cells, GQ-5 2.5 nM pre-treated 1 h, TGF-β1 10 ng/ml 1 h
Experimental: as §1, §2, §3, §4, §5

α-SMA = assay: Western blot of TGF-β1-induced α-SMA protein in vitro; format: cell-based, rat; settings: NRK 52E and NRK 49F cells, GQ-5 0.1-2.5 μM pre-treated 1 h, TGF-β1 10 ng/ml 48 h
Experimental: (§6) NRK52E and NRK49F cells were cultured in DMEM-Ham's medium supplemented with 10% fetal bovine serum. The cells reached at approximately 50% confluence were used for in vitro experiments. Cells were serum-starved for 12 h, and randomized into 6 groups: (1) Controls; (2) GQ-5 only; (3) TGF-β1 only; (4) TGF-β1+GQ-5 0.1 μM; (5) TGF-β1+GQ-5 0.5 μM; (6) TGF-β1+GQ-5 2.5 μM
(§7) (2) GQ-5 only: pre-treated with GQ-5 (2.5 μM) for 1 h, followed with DMEM for 48 h
(§8) (3) TGF-β1 only: pre-treated with DMSO for 1 h, followed with TGF-β1 (10 ng/ml) for 48 h
(§9) (4) TGF-β1+GQ-5 0.1 μM: pre-treated with GQ-5 (0.1 μM) for 1 h, followed with TGF-β1 (10 ng/ml) for 48 h
(§10) (5) TGF-β1+GQ-5 0.5 μM: pre-treated with GQ-5 (0.5 μM) for 1 h, followed with TGF-β1 (10 ng/ml) for 48 h
(§11) (6) TGF-β1+GQ-5 2.5 μM: pre-treated with GQ-5 (2.5 μM) for 1 h, followed with TGF-β1 (10 ng/ml) for 48 h
(§12) GQ-5 was dissolved in DMSO. Cells were treated as described. Cells lysates were immunebloted with antibodies against α-SMA, collagen I and fibronectin.

fibronectin = assay: Real-time PCR of TGF-β1-induced fibronectin mRNA in vitro; format: cell-based, rat; settings: NRK 52E and NRK 49F cells, GQ-5 0.1-2.5 μM pre-treated 1 h, TGF-β1 10 ng/ml 36 h
Experimental: as §6
(2) GQ-5 only: pre-treated with GQ-5 (2.5 μM) for 1 h, followed with DMEM for 36 h
(3) TGF-β1 only: pre-treated with DMSO for 1 h, followed with TGF-β1 (10 ng/ml) for 36 h
(4) TGF-β1+GQ-5 0.1 μM: pre-treated with GQ-5 (0.1 μM) for 1 h, followed with TGF-β1 (10 ng/ml) for 36 h
(5) TGF-β1+GQ-5 0.5 μM: pre-treated with GQ-5 (0.5 μM) for 1 h, followed with TGF-β1 (10 ng/ml) for 36 h
(6) TGF-β1+GQ-5 2.5 μM: pre-treated with GQ-5 (2.5 μM) for 1 h, followed with TGF-β1 (10 ng/ml) for 36 h
GQ-5 was dissolved in DMSO. Cells were treated as described. Cells were collected for mRNA extraction. Real-rime PCR was performed to examine the mRNA expression of α-SMA, collagen I and fibronectin.

C57BL/6J mice = assay: Single-dose toxicity of GQ-5 in mice; format: in vivo; settings: single intraperitoneal dose up to 800 mg/kg, 7-day observation
Experimental: To test the toxicity of GQ-5, 20 C57BL/6J little male mice which are […], healthy and clean, their weights are between 20 and 22 gram. Antisepsis the feed and water, before and in the layoff period of the test, all the mice should be feed under the normal feeding condition.
Dissolve GQ-5 in 0.5% propylene glycol, this liquor is given to little mice by intraperitoneal injection. The dosage of GQ-5 was 10, 40, 200, and 800 mg/kg body weight of mice. After administration, they are observed for 7 days.

collagen I = assay: Western blot of TGF-β1-induced collagen I protein in vitro; format: cell-based, rat; settings: NRK 52E and NRK 49F cells, GQ-5 0.1-2.5 μM pre-treated 1 h, TGF-β1 10 ng/ml 48 h
Experimental: as §6, §7, §8, §9, §10, §11, §12

CCCCCC/C=C\CCCCCCCc1cccc(O)c1O [GQ-5, 3-[(Z)-pentadec-8-enyl]catechol]
TGF-β1-induced phosphorylation of p38 (p38): did not affect
protein expression of Smad4 (Smad4): did not affect
TGF-β1-induced protein expression of α-SMA (α-SMA): significantly inhibited
TGF-β1-induced mRNA expression of fibronectin (fibronectin): significantly inhibited
death or adverse event (C57BL/6J mice): did not die or developed any adverse event
TGF-β1-induced protein expression of collagen I (collagen I): significantly inhibited
